Experiment [1] can be described thus: Preferential binding to carious lesions in teeth (CLSM). More on the design: species or system human. Particulars: labeled peptide, settings optimized per sample. The procedure: FIG. 9: Fluorescence micrographs showing specific binding of DSS peptides and variants to carious lesions in teeth. Adult human teeth were exposed to 12.5 uM 5(6)-carboxyfluorescein-labeled peptide without demineralization, washed extensively, and imaged by CLSM. Microscope and camera settings were optimized separately for each sample. […] White traces on the right side of each panel identify the position of the tooth surface, while arrows indicate the position of the stained lesion.
Sections of human teeth containing obvious carious lesions, which consist of demineralized enamel, were polished and exposed to 5(6)-carboxyfluorescein-labeled DSS peptides and variants using the protocol described in Example 2. The sections were washed extensively and imaged by CLSM using blue laser illumination (λ=488 nm) and a FITC emission filter, with microscope and camera settings adjusted for each sample to optimize the signal detected from each peptide. The images were examined to identify the relative levels of peptide binding in healthy versus carious tissue. […] Given their ability to remineralize at sites of enamel degradation (Example 6), they can also be used to initiate remineralization at sites of enamel degradation such as caries or injury sites without causing inappropriate nucleation on healthy tissue surfaces.

Experiment [2] can be described thus: Accumulation of calcium phosphate by immobilized peptide on streptavidin beads. Particulars: biotin-conjugated peptide on beads, PBS+1 mM CaCl2+1 mM NaHPO4, twelve days. The procedure: FIG. 3: Interaction of immobilized 8DSS peptide with CaHPO4. Streptavidin-coated polystyrene beads were incubated with biotin-conjugated 8DSS (A and C) or unconjugated biotin (B) and (D). Beads were washed and incubated in a solution of PBS+1 mM CaCl2+1 mM NaHPO4 for twelve days prior to imaging. A. Brightfield micrographs of aggregates of amorphous calcium phosphate that accumulated around DSS-coated beads. All calcium phosphate aggregates of significant size were associated with one or more beads. B. Brightfield image of representative biotin-blocked beads (no DSS peptide). No significant amount of precipitate was associated with these beads. C. Phase-contrast micrograph of a DSS-coated bead with a more ordered accretion of calcium phosphate around its exterior (note the spherical center of the object). These objects were not seen in control samples (biotin-blocked, no DSS peptide), as illustrated in (D). Scale Bars=4 μm. Streptavidin-coated polystyrene beads with an average diameter of 4 μm (Spherotech P.L.C.) were incubated with either biotin-conjugated 8DSS peptide or unconjugated biotin. Beads were washed with PBS to remove unbound peptide (or unbound biotin, in the case of the control beads) and incubated in a solution of PBS+1 mM CaCl2+1 mM NaHPO4 for twelve days prior to imaging. […] All calcium phosphate aggregates of significant size were associated with one or more beads. […]

The nature of experiment [3]: Binding to calcium oxalate crystals (fluorescence microscopy). Conditions: 12.5 μM labeled peptide, ten minutes. The procedure:
FIG. 11: Binding of 8DSS peptide to calcium oxalate. Calcium oxalate crystals were exposed to 12.5 μM 8DSS peptide, washed, and imaged by fluorescence microscopy as described in Example 12. […] The brightfield image (top) confirms the presence of crystals, while the fluorescence image of the same region (bottom) confirms that calcium oxalate has no visible fluorescence under these conditions. […] Calcium oxalate was prepared using a previously described method (Wang 2006). Crystals of calcium oxalate were washed with deionized water, then resuspended in a solution containing 50 mM HEPES pH 7.0, 10 mM NaCl, and 12.5 μM 5(6)-carboxyfluorescein-labeled 8DSS peptide. The crystal suspension was incubated at room temperature for ten minutes. The crystals were then harvested by centrifugation, washed twice with a solution of 50 mM HEPES pH 7.0 and 10 mM NaCl, and visualized by fluorescence microscopy as described in Example 11.

Experiment [4] can be described thus: Remineralization of demineralized dentin surfaces with Quell Desensitizer (SEM). Particulars: 12.5 μM peptide one hour, then Quell Desensitizer 15 minutes. On the set-up: species or system human. The procedure:
FIG. 4: Remineralization of tooth surfaces with DSS peptides. Extracted human teeth were sagitally sectioned and demineralized with 19% EDTA gel for 1 hour, followed by immersion in deionized water and ultrasonication to remove excess debris. Samples were treated as indicated, then imaged by Scanning Electron Microscopy. Scale bars=50 μm. A. Demineralized control samples. B. Treated with 8DSS for 1 hour, rinsed, and remineralized using Quell Desensitizer. C. Treated with buffer only, remineralized using Quell Desensitizer. D. No treatment, remineralized using Quell Desensitizer. Extracted human teeth were sagitally sectioned (Accutom-50, CA-231 diamond blade) and demineralized with 19% EthyleneDiaminoTetraAcetic acid (EDTA) gel for one hour, followed by immersion in deionized water and ultrasonication to remove excess debris. Samples were treated with 12.5 μM 8DSS peptide in 50 mM HEPES buffer (pH 7.0), buffer only (no peptide), or left untreated. After one hour, samples were remineralized for 15 minutes with Quell Desensitizer (Pentron technologies, LLC), a remineralization solution consisting of aqueous solutions of calcium chloride and potassium phosphate. Samples were rinsed thoroughly prior to imaging by scanning electron microscopy (SEM).

Experiment [5] is described as follows: Tissue specificity of binding in demineralized and nondemineralized teeth (CLSM). Conditions: 12.5 μM labeled peptide. On the set-up: species or system human. The procedure:
FIG. 6: Tissue specificity of 8DSS peptide binding and its dependence on mineralization state. Demineralized and nondemineralized human teeth samples were incubated with 12.5 μM 5(6)-carboxyfluorescein-labeled 8DSS peptide as described in Example 9, and sections were rinsed and imaged by CLSM. […] The dentin-enamel junction, labeled DEJ, is clearly demarcated in both cases.
Sagitally sectioned human teeth were either demineralized by incubation with 0.5 M EDTA for 15 minutes or left nondemineralized. Samples were then incubated for ten minutes in a solution of 12.5 μM 5(6)-carboxyfluorescein-labeled 8DSS, 10 mM NaCl, and 50 mM HEPES, pH 7.0. Control samples were incubated without peptide. Sections were then rinsed and imaged by CLSM using identical laser and camera settings.

Take “8DSS: peptide containing eight Asp-Ser-Ser (DSS) repeats, SEQ ID NO:15 (DSSDSSDSSDSSDSSDSSDSSDSS; calcium binding peptide containing eight DSS repeats, 8DSS)”: in experiment [1], the “Specificity of binding to carious lesions versus surrounding healthy enamel” value is on record as “highly specific binding to carious lesions” and the “Strength of staining of carious lesions” value is listed as “exceptionally strong staining of carious lesions”. In addition, in experiment [2], the “Calcium phosphate accumulation around peptide-coated beads” value is “incorporated into large aggregates of precipitated amorphous calcium phosphate”. The “Staining of calcium oxalate aggregates” value in experiment [3] is “significant staining”. Also, the “Mineral precipitate accumulation on demineralized dentin” value in experiment [4] was “accumulated a continuous layer of calcium phosphate precipitate, fully occluding the dentinal tubules”. Also, in experiment [5] (demineralized sample), the “Binding pattern in demineralized tooth tissue” value is “Primary binding is to the demineralized enamel (E) with little binding to the dentin (D)”. The “Binding pattern in nondemineralized tooth tissue” value in experiment [5] (nondemineralized sample) was “primary binding is to the dentin (D) with little or no binding to the enamel (E)”.
